Measurements as given in ChEMBL document CHEMBL1129767, “Synthesis and properties of 25 and 35 linked -oligoriboadenylates” (Bioorg Med Chem Lett, 1996).

What was measured:
Assay type in all cases: ADME
[1] = Biological half life period of compound was measured against nuclease P1.
[2] = Biological half life period of compound was measured against RNaseT2; N C: Not cleaved
[3] = Biological half life period of compound was measured against snake venom phosphodiesterase (SVPDE); settings: serpentes
[4] = Biological half life period of compound was measured against RNaseT2.; settings: RNase T2
[5] = Biological half life period of compound was measured against nuclease P1;NC: Not cleaved
[6] = Biological half life period of compound was measured against RNaseT2; NC: Not cleaved

Row | SMILES | half-life [1] | T1/2 [2] | half-life [3] | half-life [4] | T1/2 [5] | T1/2 [6]
1 | Nc1ncnc2c1ncn2C1OC(COP(=O)(O)O[C@@H]2C(CO)O[C@H](n3cnc4c(N)ncnc43)[C@@H]2O)[C@@H](O)[C@H]1O (single isomer, unassigned) | 120 min | Not cleaved | 31.8 min | – | – | –
2 | Nc1ncnc2c1ncn2C1O[C@H](COP(=O)(O)O[C@H]2[C@@H](O)[C@H](n3cnc4c(N)ncnc43)O[C@@H]2CO)[C@@H](O)[C@H]1O (some centres not stated) | 7.8 min | – | 3.6 min | 12.6 min | – | –
3 | Nc1ncnc2c1ncn2C1OC(COP(=O)(O)O[C@@H]2[C@H](O)[C@@H](CO)O[C@@H]2n2cnc3c(N)ncnc32)[C@@H](O)[C@H]1O (single isomer, unassigned) | – | – | 18 min | – | Not cleaved | Not cleaved
4 | Nc1ncnc2c1ncn2C1O[C@H](COP(=O)(O)O[C@@H]2[C@H](O)[C@@H](CO)O[C@H]2n2cnc3c(N)ncnc32)[C@@H](O)[C@H]1O (some centres not stated) | – | Not cleaved | 3.6 min | – | Not cleaved | –
